Experimental data published in patent publication US20060009478A1, “Methods for the treatment of back pain” (priority 2003, published 2006).

System: patients with moderate to severe chronic low back pain
Experiment: Quality of analgesia, low back pain study
Type: in vivo, human
Conditions: LOCF, ITT
Protocol: Quality of analgesia was assessed at clinic visits during the titration and fixed-dose periods. The patient was prompted with the question, “How would you rate the quality of your pain relief at this time?” and responses were selected from poor, fair, good, very good, and excellent.
Global assessment and quality of analgesia ratings were summarized descriptively by treatment group for both the titration and fixed-dose periods. Treatments were compared at each visit in the fixed-dose period, globally and in pairwise fashion, using the Cochran-Mantel-Haenszel row mean scores (CMH-RMS) test, using equally spaced scores.

COc1ccc2c3c1O[C@H]1C(=O)CC[C@@]4(O)[C@@H](C2)N(C)CC[C@]314 [OXY QID, oxycodone]
Quality of analgesia EXCELLENT (4), number of patients (fixed dose period week 1): 25 | Quality of analgesia EXCELLENT (4), percent of patients (fixed dose period week 1): 12.1% | Quality of analgesia FAIR (1), number of patients (fixed dose period week 1): 26 | Quality of analgesia FAIR (1), percent of patients (fixed dose period week 1): 12.6% | Quality of analgesia GOOD (2), number of patients (fixed dose period week 1): 69 | Quality of analgesia GOOD (2), percent of patients (fixed dose period week 1): 33.5% | Quality of analgesia POOR (0), number of patients (fixed dose period week 1): 33 | Quality of analgesia POOR (0), percent of patients (fixed dose period week 1): 16.0% | Quality of analgesia VERY GOOD (3), number of patients (fixed dose period week 1): 52 | Quality of analgesia VERY GOOD (3), percent of patients (fixed dose period week 1): 25.2% | Quality of analgesia EXCELLENT (4), number of patients (fixed dose period week 2): 24 | Quality of analgesia EXCELLENT (4), percent of patients (fixed dose period week 2): 11.7% | Quality of analgesia FAIR (1), number of patients (fixed dose period week 2): 27 | Quality of analgesia FAIR (1), percent of patients (fixed dose period week 2): 13.1% | Quality of analgesia GOOD (2), number of patients (fixed dose period week 2): 70 | Quality of analgesia GOOD (2), percent of patients (fixed dose period week 2): 34.0% | Quality of analgesia POOR (0), number of patients (fixed dose period week 2): 32 | Quality of analgesia POOR (0), percent of patients (fixed dose period week 2): 15.5% | Quality of analgesia VERY GOOD (3), number of patients (fixed dose period week 2): 52 | Quality of analgesia VERY GOOD (3), percent of patients (fixed dose period week 2): 25.2% | Quality of analgesia EXCELLENT (4), number of patients (fixed dose period week 4): 20 | Quality of analgesia EXCELLENT (4), percent of patients (fixed dose period week 4): 9.7% | Quality of analgesia FAIR (1), number of patients (fixed dose period week 4): 28 | Quality of analgesia FAIR (1), percent of patients (fixed dose period week 4): 13.6% | Quality of analgesia GOOD (2), number of patients (fixed dose period week 4): 63 | Quality of analgesia GOOD (2), percent of patients (fixed dose period week 4): 30.6% | Quality of analgesia POOR (0), number of patients (fixed dose period week 4): 35 | Quality of analgesia POOR (0), percent of patients (fixed dose period week 4): 17.0% | Quality of analgesia VERY GOOD (3), number of patients (fixed dose period week 4): 59 | Quality of analgesia VERY GOOD (3), percent of patients (fixed dose period week 4): 28.6% | Quality of analgesia EXCELLENT (4), number of patients (fixed dose period week 6): 24 | Quality of analgesia EXCELLENT (4), percent of patients (fixed dose period week 6): 11.7% | Quality of analgesia FAIR (1), number of patients (fixed dose period week 6): 34 | Quality of analgesia FAIR (1), percent of patients (fixed dose period week 6): 16.5% | Quality of analgesia GOOD (2), number of patients (fixed dose period week 6): 67 | Quality of analgesia GOOD (2), percent of patients (fixed dose period week 6): 32.5% | Quality of analgesia POOR (0), number of patients (fixed dose period week 6): 36 | Quality of analgesia POOR (0), percent of patients (fixed dose period week 6): 17.5% | Quality of analgesia VERY GOOD (3), number of patients (fixed dose period week 6): 44 | Quality of analgesia VERY GOOD (3), percent of patients (fixed dose period week 6): 21.4% | Quality of analgesia EXCELLENT (4), number of patients (fixed dose period week 8): 24 | Quality of analgesia EXCELLENT (4), percent of patients (fixed dose period week 8): 11.7% | Quality of analgesia FAIR (1), number of patients (fixed dose period week 8): 35 | Quality of analgesia FAIR (1), percent of patients (fixed dose period week 8): 17.0% | Quality of analgesia GOOD (2), number of patients (fixed dose period week 8): 72 | Quality of analgesia GOOD (2), percent of patients (fixed dose period week 8): 35.0% | Quality of analgesia POOR (0), number of patients (fixed dose period week 8): 33 | Quality of analgesia POOR (0), percent of patients (fixed dose period week 8): 16.0% | Quality of analgesia VERY GOOD (3), number of patients (fixed dose period week 8): 41 | Quality of analgesia VERY GOOD (3), percent of patients (fixed dose period week 8): 19.9% | Quality of analgesia EXCELLENT (4), number of patients (fixed dose period week 10): 24 | Quality of analgesia EXCELLENT (4), percent of patients (fixed dose period week 10): 11.7% | Quality of analgesia FAIR (1), number of patients (fixed dose period week 10): 35 | Quality of analgesia FAIR (1), percent of patients (fixed dose period week 10): 17.0% | Quality of analgesia GOOD (2), number of patients (fixed dose period week 10): 66 | Quality of analgesia GOOD (2), percent of patients (fixed dose period week 10): 32.0% | Quality of analgesia POOR (0), number of patients (fixed dose period week 10): 35 | Quality of analgesia POOR (0), percent of patients (fixed dose period week 10): 17.0% | Quality of analgesia VERY GOOD (3), number of patients (fixed dose period week 10): 45 | Quality of analgesia VERY GOOD (3), percent of patients (fixed dose period week 10): 21.8% | Quality of analgesia EXCELLENT (4), number of patients (fixed dose period week 12): 21 | Quality of analgesia EXCELLENT (4), percent of patients (fixed dose period week 12): 10.2% | Quality of analgesia FAIR (1), number of patients (fixed dose period week 12): 40 | Quality of analgesia FAIR (1), percent of patients (fixed dose period week 12): 19.4% | Quality of analgesia GOOD (2), number of patients (fixed dose period week 12): 64 | Quality of analgesia GOOD (2), percent of patients (fixed dose period week 12): 31.1% | Quality of analgesia POOR (0), number of patients (fixed dose period week 12): 37 | Quality of analgesia POOR (0), percent of patients (fixed dose period week 12): 18.0% | Quality of analgesia VERY GOOD (3), number of patients (fixed dose period week 12): 43 | Quality of analgesia VERY GOOD (3), percent of patients (fixed dose period week 12): 20.9%
